The values below come from PubChem BioAssay AID1645863 (Buhrlage Lab, Dana-Farber Cancer Institute and Novartis …, 2021).

Calls of active or inactive are those of the source. The rule behind the calls is not given here. Some results are limits rather than exact numbers.

In this assay the target is Ubiquitin carboxyl-terminal hydrolase 10 (Homo sapiens) (UniProt Q14694). The assay is described as follows: primary hit verification, biochemical, ubiquitin-specific protease 10 deubiquitylase inhibitors, concentration-effect titration (AID 1645863).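 Note: potency values describe inhibition of USP10 cleavage of a fluorogenic ubiquitin substrate.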 To be noted: USP10 deubiquitinase enzymatic assay.
Ubiquitin carboxyl-terminal hydrolase 10 (Homo sapiens), sequence (Q14694 whole entry, looked up): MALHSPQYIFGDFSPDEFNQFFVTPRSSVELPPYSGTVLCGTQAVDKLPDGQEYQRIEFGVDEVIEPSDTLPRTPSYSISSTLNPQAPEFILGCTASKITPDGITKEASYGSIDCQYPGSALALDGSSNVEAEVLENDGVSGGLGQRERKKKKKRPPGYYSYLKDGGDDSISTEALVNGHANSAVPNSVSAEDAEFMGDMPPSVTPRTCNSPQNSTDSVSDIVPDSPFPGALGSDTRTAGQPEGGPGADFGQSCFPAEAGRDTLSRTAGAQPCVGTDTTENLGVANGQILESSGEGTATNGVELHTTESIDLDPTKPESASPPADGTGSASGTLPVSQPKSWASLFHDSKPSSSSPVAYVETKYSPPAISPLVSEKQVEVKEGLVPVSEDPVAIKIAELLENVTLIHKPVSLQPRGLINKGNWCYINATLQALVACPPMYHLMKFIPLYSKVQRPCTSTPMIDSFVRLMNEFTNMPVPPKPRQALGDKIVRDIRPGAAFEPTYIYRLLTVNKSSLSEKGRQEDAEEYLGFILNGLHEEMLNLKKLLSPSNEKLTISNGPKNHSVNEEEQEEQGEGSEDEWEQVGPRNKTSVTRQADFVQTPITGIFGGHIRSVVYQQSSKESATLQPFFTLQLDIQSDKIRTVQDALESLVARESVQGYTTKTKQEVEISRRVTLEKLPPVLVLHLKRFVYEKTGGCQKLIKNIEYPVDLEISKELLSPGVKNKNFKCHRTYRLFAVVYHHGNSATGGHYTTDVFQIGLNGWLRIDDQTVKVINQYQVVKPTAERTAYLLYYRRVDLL
A word on the IC50: it is the concentration that inhibits the measured activity by half. Regarding `COc1ccc(NS(=O)(=O)c2cc(NC(=O)CC(=O)c3ccc([N+](=O)[O-])cc3)ccc2Cl)cc1`, the IC50 is 12.2 µM. In the case of `Oc1cccc2nc3c(O)cccc3nc12`, the IC50 was 11.3 µM.

For the compound `COc1ccc(NC(=O)Cn2cc(C(=O)c3ccc(Cl)cc3)c(=O)c3cc(F)ccc32)cc1`, the IC50 is 13.2 µM. Take `CSc1ncccc1C(=O)NC1(O)C(=O)c2ccccc2C1=O`: the IC50 is 9.86 µM.

On to `O=C(c1ccc(Cl)cc1)N(c1ccccn1)C1CCCCC1`, for which the IC50 is > 40 µM (inactive). In the case of `O=C(c1ccco1)N1CCCC1c1nc(-c2ccccc2)n[nH]1` (stereo not given), the IC50 is > 40 µM (inactive). As for `COc1ccc(Cl)cc1NC(=O)Cn1c(=O)n(CCCC(=O)NCc2ccc(C)cc2)c(=O)c2sccc21`, the figure is 31.1 µM; as for `Cc1cc(Cl)ccc1NC(=O)c1cc(-c2cccnc2)n[nH]1`, > 40 µM (inactive). For `COc1ccccc1CNC(=O)C1c2ccccc2C(=O)N1Cc1ccccc1C` (stereo not given), the IC50 was > 40 µM (inactive). As for `CC(C)=CCc1c2c(c3occ(-c4ccc(O)cc4)c(=O)c3c1O)C=CC(C)(C)O2`, the figure is > 40 µM (inactive). On to `Fc1ccccc1-c1nc2c3cnn(-c4ccccc4)c3ncn2n1`, for which the IC50 was > 40 µM (inactive). Take `Fc1ccccc1-c1nnc(C2(c3ccc4c(c3)OCO4)CCOCC2)o1`: the IC50 is > 40 µM (inactive). On to `C[C@@H]1CO[C@@H]2C3=C(C(=O)C=CC3=O)[C@H]3OC(=O)[C@@H]4CCC5[C@@H]1CCC52C34` (stereo not given in full), for which the IC50 was 18.5 µM.

In the case of `Cc1ccc(NC(=O)Nc2ccc(C)n(CC(=O)Nc3ccc(C)c(C)c3)c2=O)cc1`, the concentration for half-maximal inhibition (IC50) is 11.1 µM.

On to `CNc1nc2c(c(=O)n1C)CN(C(=O)Nc1cccc3ccccc13)CC2`, for which the IC50 was > 40 µM (inactive).

As to `COC(=O)c1ccccc1NC(=O)C1CCCN(c2nnc(-n3cccc3)s2)C1` (stereo not given), the IC50 was > 40 µM (inactive). For `Cc1noc(/C=C/Nc2cc(Cl)cc(Cl)c2)c1[N+](=O)[O-]`, the IC50 is > 40 µM (inactive).

For the compound `O=C(CN1CC=C(c2ccccc2)CC1)Nc1ccc(S(=O)(=O)N2CCOCC2)cc1`, the IC50 is > 40 µM (inactive). Consider `Cc1cc(N2CCN(c3ncccn3)CC2)nc2ccc(NC(=O)Cn3nc([N+](=O)[O-])c(Br)c3C)cc12`, for which the IC50 was > 40 µM (inactive). As for `CSCCC(NC(=O)c1ccccc1)c1nc2ccccc2n1CC(=O)Nc1ccccc1` (stereo not given), the IC50 is 35.9 µM. As for `COc1ccc(-c2cc3c(=O)n(CC(=O)Nc4ccccc4C)ccn3n2)cc1`, the IC50 is > 40 µM (inactive). Consider `CCc1ccc(NC(=O)c2cc(C(F)(F)F)n(C)n2)cc1`, for which the IC50 was > 40 µM (inactive). On to `Cc1cccc(NC(=O)Nc2nnc(CC(=O)NCc3ccccc3)s2)c1`, for which the IC50 was 17.4 µM. For `Cc1ccc2cc(-c3noc(CCC(=O)NC4CCCC4)n3)c(=O)[nH]c2c1`, the IC50 was > 40 µM (inactive). For the compound `O=C(c1ccc2occc2c1)N1CCC(S(=O)(=O)c2ccc(-c3ccco3)cc2)CC1`, the IC50 is > 40 µM (inactive). On to `O=C(Cn1cccc(-c2nc(-c3ccccc3)no2)c1=O)Nc1ccccc1F`, for which the IC50 was > 40 µM (inactive). As for `COc1ccc(S(=O)(=O)NCc2ccc3c(c2)cc(C)n3C)cc1`, the IC50 was > 40 µM (inactive). As for `CCCc1ccc(C(=O)[C@@H]2[C@@H](C(=O)c3cccs3)N3c4ccc(C)cc4C(C)=C[C@@H]3[C@@]23C(=O)Nc2ccccc23)cc1`, the figure is > 40 µM (inactive); as for `COc1cc(NC(=O)Cn2nc(-c3ccc(F)cc3)ccc2=O)ccc1-n1cnnn1`, > 40 µM (inactive).

Consider `O=C(Cn1ncc2c(=O)oc3ccccc3c21)NCc1ccc2c(c1)OCO2`, for which the IC50 is > 40 µM (inactive).

As to `Cn1c(=O)n([C@@H](Cc2ccccc2)C(=O)N[C@@H](C(=O)O)c2ccc(O)cc2)c(=O)c2ccccc21`, the IC50 is > 40 µM (inactive). As for `COc1ccc(NC(=O)c2nnc(C(=O)NCc3ccccc3F)s2)cc1`, the IC50 was > 40 µM (inactive).

`Cc1ccc(-n2cc(C(=O)NCCCc3ccccc3)nn2)cc1`: the IC50 is 29.5 µM. For `Cc1ccc2c(c1)N(C)C(=O)c1cc(NC(=O)c3ccc(F)cc3)ccc1O2`, the IC50 is 12.8 µM.

Consider `COc1ccccc1C(=O)Nc1ccc(-c2nc3ccccc3o2)c(O)c1`, for which the IC50 was > 40 µM (inactive). With `O=C(COc1cccc(-c2noc(-c3ccc([N+](=O)[O-])cc3)n2)c1)Nc1ccccc1`, the IC50 is > 40 µM (inactive). For the compound `CCOc1ccc(NC(=O)Cn2c(=O)n(CCC(=O)NCc3ccco3)c(=O)c3ccccc32)cc1`, the IC50 is 24.4 µM. As for `CC(NC(=O)c1ccccc1)c1nc2ccccc2n1CC(=O)Nc1ccc(C#N)cc1` (stereo not given), the figure is 13.2 µM.

On to `O=C(CCc1nnc2n(Cc3ccccc3Cl)c(=O)c3ccccc3n12)NCc1ccccc1`, for which the IC50 is > 40 µM (inactive). With `O=C(COc1ccc(Cl)cc1)Nc1noc(-c2cccs2)n1`, the IC50 is > 40 µM (inactive). Consider `Cc1ccc(C(=O)Nc2ccc3c(c2)Sc2ncccc2C(=O)N3C(C)C)cc1C`, for which the IC50 is > 40 µM (inactive). In the case of `Cc1sc2ccn(C)c(=O)c2c1C(=O)NC1CCCC1`, the IC50 is 27.5 µM.

Consider `Cc1cccc(NC(=O)CSc2nc3c(cc2C#N)C(=O)CCC3)c1`, for which the IC50 is 26.4 µM.

Take `COC(=O)c1ccc(Nc2cc(C)nc3cc(C(F)(F)F)ccc23)cc1`: the IC50 is 30.5 µM.

Consider `Cc1nc(-c2ccccc2)sc1-c1nc(-c2ccccc2)ncc1S(=O)(=O)c1ccccc1`, for which the IC50 was > 40 µM (inactive). For `N#Cc1cccc(NC(=O)Nc2cccn(Cc3ccc(F)cc3)c2=O)c1`, the IC50 is > 40 µM (inactive). `COc1cccc(NC(=O)c2cnc(N3CCCC3)nc2C)c1`: the IC50 was > 40 µM (inactive). `O=c1[nH]c(C2CCN(S(=O)(=O)c3ccc(S(=O)(=O)N4CCOCC4)cc3)CC2)nc2c1nnn2Cc1ccc(F)cc1`: the IC50 is > 40 µM (inactive). The result for `CCc1noc(-c2ccn3c(CC(=O)Nc4ccccc4C)nnc3c2)n1` reads 8 µM; that for `CCOC(=O)N1CCN(C(=O)c2ccc(NCc3ccc(F)cc3)c(S(=O)(=O)Nc3cccc(C(F)(F)F)c3)c2)CC1`, 29.8 µM; that for `Cn1c(=O)c2nc(-c3ccc(Cl)cc3)nnc2n(C)c1=O`, 3.21 µM. Regarding `COc1cc(OC)cc(N2C(=O)N(CC(=O)c3ccc(Br)cc3)c3ccccc3S2(=O)=O)c1`, the IC50 was 13.8 µM. For `CCCc1nnc(NC(=O)c2cc(-c3ccccc3O)n[nH]2)s1`, the IC50 is > 40 µM (inactive). Consider `CC1(C)Cc2c(c(-c3ccco3)nc3sc4c(SCCCc5ccccc5)ncnc4c23)CO1`, for which the IC50 is 29.1 µM. In the case of `CCc1ccc(OCCn2c(CCNC(=O)C3CCCCC3)nc3ccccc32)cc1`, the IC50 is > 40 µM (inactive). In the case of `Cc1ccc(NC(=O)Cn2cncc(-c3nc(-c4ccccc4)cs3)c2=O)cc1F`, the IC50 was 22.9 µM.

Consider `Cc1cc(C(=O)CSc2nc3ccccc3[nH]2)c(C)n1Cc1ccco1`, for which the IC50 was > 40 µM (inactive). On to `Cc1ccc(NC(=O)Cc2nnc3cc(-c4nc(C)no4)ccn23)cc1`, for which the IC50 is 14.3 µM. As for `O=C(Cn1c(=O)n(-c2ccccc2)c(=O)c2ccc(C(=O)NCc3ccc4c(c3)OCO4)cc21)NCCC1=CCCCC1`, the figure is 16.2 µM; as for `COc1ccc(NC(=O)Cn2c(=O)n(Cc3ccco3)c(=O)c3ccc(C(=O)NC4CCCC4)cc32)cc1`, > 40 µM (inactive).
